Measured values as given in patent US10835466B2, “Wrinkle ameliorating agent” (POLA CHEMICAL INDUSTRIES, INC., priority 2016, dated 2020).
Counter-ions that a name gives are not always drawn.

System: wrinkles of the outer corners of the eyes
Experiment: Test of wrinkle improvement effect (skin replica shadow image analysis after 8 weeks of application)
Type: in vivo, women
Details: for Wrinkle improvement Improvement rate (%): applied to outer corners of the eyes twice a day for 8 weeks; for Wrinkle improvement Evaluation: twice a day for 8 weeks, class of the improvement rate
Experimental: The cosmetics (Examples 1-7, Comparative Example, and Reference Examples) according to Table 1 were prepared respectively in a conventional manner. With regard to each of the prepared cosmetics, the wrinkle improvement effect was evaluated by the following method. In other words, 45 women (40 to 60 years old) who were concerned about wrinkles of the outer corners of the eyes were divided into 9 groups of 5 persons. To each group, any one of the cosmetics of Examples 1 to 7, Comparative Example, and Reference Examples was handed over, which was applied by them to the outer corners of the eyes twice a day in the morning and evening continuously for 8 weeks. Before and after the test, an impression of the skin surface profile was taken in a conventional manner to produce the respective replicas. As the base material for the replica, that for a white replica not transmitting light was used. […] The distribution of brightness in the shadow image was determined, and the brightness equal to or higher than the median value of the brightness was transformed to the maximum brightness, and the brightness below the median value was transformed to the brightness 0 so that binarization is performed according to the borderline of the median value of the brightness. Then the area rate of the shadow portion (portion with the brightness 0) was measured and the wrinkle improvement rate was calculated based on the following expression. Wrinkle improvement rate (%)=(Area rate of shadow portion before test−Area rate of shadow portion after test)/(Area rate of shadow portion before test)×100

[1] = cosmetic of Table 1 with 1% by mass compound, average of group of 5 women (40 to 60 years old)
[2] = cosmetic of Table 1 with 1% by mass compound
[3] = cosmetic of Table 1 with 0.01% by mass compound (Examples 3 and 5), average of group of 5 women
[4] = cosmetic of Table 1 with 0.01% by mass compound (Examples 3 and 5)

Structure (SMILES) | Wrinkle improvement Improvement rate (%) [1] | Wrinkle improvement Evaluation [2] | Wrinkle improvement Improvement rate (%) [3] | Wrinkle improvement Evaluation [4]
CCCCCCOC(=O)CCc1ccc(C(=O)C2CCC(CN)CC2)cc1 (centres unmarked) [Compound 2, hexyl 3-[p-(4-aminomethylcyclohexylcarbonyl)phenyl]propionate] | 8.2% | A (5% or more and less than 10%) |  | 
NCC1CCC(C(=O)c2ccc(CCCO)cc2)CC1 (centres unmarked) [Compound 3, 3-[p-(4-aminomethylcyclohexylcarbonyl)phenyl]propanol] | 9.3% | A (5% or more and less than 10%) | 5.6% | A (5% or more and less than 10%)
CCCCCC(=O)OCC(C)Cc1ccc(C(=O)C2CCC(CN)CC2)cc1 (centres unmarked) [Compound 5, 2-methyl-3-[p-(4-aminomethylcyclohexylcarbonyl)phenyl]propyl hexanoate] | 6.5% | A (5% or more and less than 10%) |  | 
CCCCCC(=O)OCCCc1ccc(C(=O)C2CCC(CN)CC2)cc1 (centres unmarked) [Compound 4, 3-[p-(4-aminomethylcyclohexylcarbonyl)phenyl]propyl hexanoate] | 8.3% | A (5% or more and less than 10%) |  | 
NCC1CCC(C(=O)c2ccc(CCC(=O)O)cc2)CC1 (centres unmarked) [Hydrochloride salt of Compound 1, 3-[p-(4-aminomethylcyclohexylcarbonyl)phenyl]propionic acid] | 12.2% | AA (The improvement rate is 10% or more) |  | 
NCC1CCC(C(=O)c2ccc(CCC(=O)O)cc2)CC1 (centres unmarked) [Compound 1, 3-[p-(4-aminomethylcyclohexylcarbonyl)phenyl]propionic acid] | 12% | AA (The improvement rate is 10% or more) | 6.3% | A (5% or more and less than 10%)
CNC(=O)[C@H]1CC[C@H](CN)CC1.Cl [Tranexamic acid methylamide hydrochloride, reference compound] | 3.6% | B (less than 5%) |  | 
NC[C@H]1CC[C@H](C(=O)O)CC1 [Tranexamic acid, reference compound] | 3.2% | B (less than 5%) |  | 
